A word on the pEC50: it is the negative decadic logarithm of the EC50, by convention in mol/L. Higher therefore signals a low EC50. Broadly, the Kd is the free concentration of one partner at which half of the binding sites on the other are occupied at equilibrium, for simple one-to-one binding.

Our source for the pEC50 and Kd values is ChEMBL document CHEMBL1155248, “Structure-based shape pharmacophore modeling for the discovery of novel anesthetic compounds” (Bioorg Med Chem, 2009).

A short description of one test: Binding affinity to apoferritin by isothermal titration calorimetry.
On to `CC(C)(C)c1cc(O)cc(C(C)(C)C)c1`, for which the pEC50 turned out to be 4.
Same read-out and setting: to `Oc1ccccc1` [PHENOL] belongs 3.
Same read-out and setting: with `CCC(C)c1ccc(O)c(C(C)CC)c1` (centres undefined) the figure was 4.5; with `CC(C)c1ccccc1O`, 4.4.
On to `Cc1cccc(C(C)(C)C)c1O`, for which the pEC50 is listed as 6.3.
As to `CC(C)c1cc(O)c(O)c(C(C)C)c1`, the pEC50 stood at 4.4.
On the same count and under the same terms, to `CCc1cccc(CC)c1Br` belongs 4.7.
The compound `CC(C)c1cccc(C(C)C)c1O` [PROPOFOL] registered a pEC50 of 5.7.
Regarding `CCc1cccc(CC)c1N=C=O`, the pEC50 amounted to 4.6.
Same read-out and setting: with `CCC(C)c1cccc(C(C)CC)c1O` (centres undefined) the figure was 5.6; with `CC(C)c1cc(I)cc(C(C)C)c1O`, 5.
For the compound `CCc1cccc(CC)c1O`, the pEC50 is 4.9.
Same read-out and setting: with `Cc1cccc(C)c1O` the figure was 3.9.
Compound `CCc1cccc(CC)c1N=C=S` came in with a negative logarithm of the EC50 (pEC50) of 4.8.

A short description of the next test: Agonist activity at GABAA assessed as enhancement of channel current. The format is functional.
Take `Oc1ccccc1` [PHENOL]: the Kd came out at 3800 nM.
Still for that read-out and setting: to `CC(C)c1ccccc1O` belongs 500 nM; to `CC(C)c1cccc(C(C)C)c1O` [PROPOFOL], 230 nM.
Still for that read-out and setting: with `CCc1cccc(CC)c1O` the figure was 310 nM; with `Cc1cccc(C)c1O`, 360 nM.
